According to ChEMBL document CHEMBL4422615, “Novel non-xanthine antagonist of the A2B adenosine receptor: From HTS hit to lead structure” (Eur J Med Chem, 2019):
Calls of active or inactive are those of the source. The calls are words filed in the database; no cut-off is given here.

What was measured:
[1] = Oral bioavailability in dog at 1 mg/kg for 15 mins by HPLC-MS/MS analysis; type: ADME, organism-based, Canis lupus familiaris; conditions: in vivo
[2] = Oral bioavailability in mouse at 1 mg/kg administered as bolus dose by HPLC-MS/MS analysis; type: ADME, organism-based; conditions: in vivo
Mus musculus [3] = experiment: Antifibrotic activity in silica-induced C57BL/6J mouse pulmonary fibrosis model assessed as reduction in TGF-beta level in lung tissue homogenate at 100 to 500 mg/kg, bid administered via gavage treated from day 1 until day 7 after silica application by ELISA; type: functional, organism-based
[4] = Fraction unbound in rat plasma by equilibrium dialysis method; type: ADME, cell-free
Cytochrome P450 1A2 = molecular target: T1, Cytochrome P450 1A2 (Homo sapiens, UniProt P05177); experiment: Inhibition of CYP1A2 in human liver microsomes using phenacetin as substrate after 15 mins in presence of NADPH by LC-MS/MS analysis; type: ADME
T1 sequence (P05177 whole entry): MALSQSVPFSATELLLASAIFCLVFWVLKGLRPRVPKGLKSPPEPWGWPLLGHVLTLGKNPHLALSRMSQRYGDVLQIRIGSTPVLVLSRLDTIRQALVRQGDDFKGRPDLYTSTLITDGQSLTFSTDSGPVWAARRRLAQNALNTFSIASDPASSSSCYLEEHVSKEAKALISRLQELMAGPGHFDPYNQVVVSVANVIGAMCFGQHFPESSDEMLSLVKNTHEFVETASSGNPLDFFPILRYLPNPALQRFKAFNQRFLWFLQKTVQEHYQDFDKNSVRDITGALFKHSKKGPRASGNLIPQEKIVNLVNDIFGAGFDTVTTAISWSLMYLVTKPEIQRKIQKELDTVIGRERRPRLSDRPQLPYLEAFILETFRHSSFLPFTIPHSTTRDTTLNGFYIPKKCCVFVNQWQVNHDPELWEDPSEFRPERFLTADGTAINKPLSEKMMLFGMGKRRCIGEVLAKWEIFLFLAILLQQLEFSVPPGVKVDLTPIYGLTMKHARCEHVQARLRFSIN

Adenosine receptor A2b [5] = molecular target: T2, Adenosine receptor A2b (Homo sapiens, UniProt P29275); experiment: Displacement of [3H]DPCPX from human A2B adenosine receptor expressed in HEK293 cell membranes after 60 mins by radioligand displacement assay
T2 sequence (P29275 whole entry): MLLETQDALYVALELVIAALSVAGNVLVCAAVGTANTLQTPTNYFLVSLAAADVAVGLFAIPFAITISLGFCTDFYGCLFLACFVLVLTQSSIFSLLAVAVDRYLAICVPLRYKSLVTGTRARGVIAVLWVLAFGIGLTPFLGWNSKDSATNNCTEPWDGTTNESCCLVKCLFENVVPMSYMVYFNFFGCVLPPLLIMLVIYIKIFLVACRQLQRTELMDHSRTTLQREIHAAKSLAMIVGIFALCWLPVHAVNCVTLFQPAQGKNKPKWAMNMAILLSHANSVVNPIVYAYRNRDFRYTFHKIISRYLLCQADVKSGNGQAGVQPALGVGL

[6] = Plasma clearance in mouse; type: ADME, organism-based
Adenosine receptor A2b [7] = molecular target: T3, Adenosine receptor A2b (Rattus norvegicus, UniProt P29276); experiment: Antagonist activity at recombinant rat A2B adenosine receptor expressed in CHO cells after 3 to 4 hrs by luciferase reporter gene assay; type: cell-based
T3 sequence (P29276 whole entry): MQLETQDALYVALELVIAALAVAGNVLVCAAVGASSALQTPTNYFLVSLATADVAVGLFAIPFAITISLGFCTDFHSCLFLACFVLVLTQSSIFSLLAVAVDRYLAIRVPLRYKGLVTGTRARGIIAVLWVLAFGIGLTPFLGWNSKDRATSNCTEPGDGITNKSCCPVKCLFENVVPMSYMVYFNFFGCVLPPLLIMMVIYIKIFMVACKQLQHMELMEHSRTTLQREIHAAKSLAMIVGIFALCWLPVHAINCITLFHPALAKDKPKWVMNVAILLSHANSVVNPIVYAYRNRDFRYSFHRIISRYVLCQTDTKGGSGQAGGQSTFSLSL

[8] = Half life in mouse at 0.3 mg/kg, iv administered as bolus dose by HPLC-MS/MS analysis; type: ADME, organism-based; conditions: in vivo
[9] = Dose normalized AUC in rat at 0.3 mg/kg, iv administered as infusion for 15 mins by HPLC-MS/MS analysis; type: ADME, organism-based; conditions: in vivo, 0.25 h
[10] = Half life in rat at 1 mg/kg, po for 15 mins by HPLC-MS/MS analysis; type: ADME, organism-based; conditions: in vivo
[11] = Fraction unbound in human plasma by equilibrium dialysis method; type: ADME, cell-free
[12] = Dose normalized Cmax in dog at 1 mg/kg, po for 15 mins by HPLC-MS/MS analysis; type: ADME, organism-based, Canis lupus familiaris; conditions: in vivo, 0.25 h
Mus musculus [13] = experiment: Antifibrotic activity in FITC-induced C57BL/6J mouse pulmonary fibrosis model assessed as reduction in IL-6 level in BALF homogenate at 100 to 500 mg/kg, bid administered via gavage pretreated for 45 mins before FITC addition until 72 hrs after FITC application by ELISA; type: functional, organism-based
[14] = Half life in dog at 1 mg/kg, po for 15 mins by HPLC-MS/MS analysis; type: ADME, organism-based, Canis lupus familiaris; conditions: in vivo
[15] = Efflux ratio in human Caco2 cells; type: ADME, cell-based; conditions: Caco-2
[16] = Dose normalized AUC in dog at 1 mg/kg, po for 15 mins by HPLC-MS/MS analysis; type: ADME, organism-based, Canis lupus familiaris; conditions: in vivo, 0.25 h
[17] = Blood clearance in rat by measuring Intrinsic clearance in rat hepatocytes by MS/MS analysis; type: ADME, cell-based
[18] = Dose normalized AUC in rat at 1 mg/kg, po for 15 mins by HPLC-MS/MS analysis; type: ADME, organism-based; conditions: in vivo, 0.25 h
Adenosine receptor A2a [19] = molecular target: T4, Adenosine receptor A2a (Homo sapiens, UniProt P29274); experiment: Antagonist activity at recombinant human A2A adenosine receptor expressed in CHO cells after 3 to 4 hrs by luciferase reporter gene assay; type: cell-based
T4 sequence (P29274 whole entry): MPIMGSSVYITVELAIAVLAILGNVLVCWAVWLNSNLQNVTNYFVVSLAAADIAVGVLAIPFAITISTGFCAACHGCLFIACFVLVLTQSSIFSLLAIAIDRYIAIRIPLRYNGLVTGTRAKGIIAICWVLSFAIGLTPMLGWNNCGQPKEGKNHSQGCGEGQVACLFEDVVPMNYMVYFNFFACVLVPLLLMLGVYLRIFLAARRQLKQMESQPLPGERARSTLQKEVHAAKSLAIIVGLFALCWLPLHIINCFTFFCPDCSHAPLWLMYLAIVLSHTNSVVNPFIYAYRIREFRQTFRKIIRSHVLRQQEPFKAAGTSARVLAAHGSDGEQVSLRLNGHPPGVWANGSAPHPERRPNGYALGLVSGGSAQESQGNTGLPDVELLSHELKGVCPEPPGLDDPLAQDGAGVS

Adenosine receptor A3 = molecular target: T5, Adenosine receptor A3 (Homo sapiens, UniProt P0DMS8); experiment: Antagonist activity at recombinant human A3 adenosine receptor expressed in CHO cells after 3 to 4 hrs by luciferase reporter gene assay; type: cell-based
T5 sequence (P0DMS8 whole entry): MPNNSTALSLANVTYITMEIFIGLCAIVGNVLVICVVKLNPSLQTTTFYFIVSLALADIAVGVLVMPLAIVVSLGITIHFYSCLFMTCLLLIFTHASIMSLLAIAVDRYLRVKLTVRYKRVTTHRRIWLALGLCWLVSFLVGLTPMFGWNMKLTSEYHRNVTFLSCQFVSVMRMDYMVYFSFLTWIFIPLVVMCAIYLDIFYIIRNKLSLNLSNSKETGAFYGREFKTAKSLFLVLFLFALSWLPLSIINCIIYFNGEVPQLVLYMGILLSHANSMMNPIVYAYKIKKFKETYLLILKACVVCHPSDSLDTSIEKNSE

Adenosine receptor A2a [20] = molecular target: T4, Adenosine receptor A2a; experiment: Displacement of [3H]CGS21680 from human A2A adenosine receptor expressed in HEK293 cell membranes after 120 mins by radioligand displacement assay
[21] = MRT in dog at 0.3 mg/kg, iv administered as infusion for 15 mins by HPLC-MS/MS analysis; type: ADME, organism-based, Canis lupus familiaris; conditions: in vivo
[22] = Blood clearance in mouse by measuring intrinsic clearance in mouse liver microsomes by MS/MS analysis; type: ADME

bioavailability [1]: 79%
bioavailability [2]: 65%
fraction unbound [4]: 0.7
IC50 (Cytochrome P450 1A2): > 20000 nM
IC50 (Adenosine receptor A2b [5]): 59 to 66 nM
clearance [6]: 10.2 mL/min/kg
IC50 (Adenosine receptor A2b [7]): 280 nM
half-life [8]: 1.2 h
AUC/dose [9]: 0.88 kg·h/L
half-life [10]: 1.4 h
fraction unbound [11]: 0.6
Cmax/dose [12]: 0.61 kg/L
half-life [14]: 5.1 h
efflux ratio [15]: 0.82
AUC/dose [16]: 2 kg·h/L
CLhep predicted [17]: 23.3 mL/min/kg
AUC/dose [18]: 0.78 kg·h/L
IC50 (Adenosine receptor A2a [19]): 820 nM
IC50 (Adenosine receptor A3): > 6700 nM
Ki (Adenosine receptor A2a [20]): > 1000 nM
MRT [21]: 4.9 h
CLhep predicted [22]: < 8.33 mL/min/kg
SMILES: CCn1c(=O)c2c(C)c(C(=O)N3CCC(O)CC3)sc2n(CCC(F)(F)F)c1=O
Activity (Mus musculus [3]): Active
Activity (Mus musculus [13]): inactive
